Legend:
THP1 cells = assay: IFN-β secretion in THP1 cell culture (5 h); format: cell-based, human; details: relative to 30 uM cGAMP
Method: The ability of compounds to stimulate the secretion of interferon-beta from THP1 cells was measured using a human IFN-3 AlphaLISA kit (Perkin Elmer, Cat. No. AL265F). The basic protocol is as follows:
The cell viability and count was ascertained using a Beckman Coulter V-Cell XR cell counter. The cells suspension was centrifuged at 200×g for 5 min at RT. Cells were resuspended to a density of 0.8×10^6/mL in 37° C. assay medium. Subsequent liquid transfers were performed using either a Matrix electronic multichannel pipette or an Agilent Bravo Automated Liquid Handling Platform.
The assay was started by dispensing 40 μL of the previously prepared cell suspension into the wells of the plate containing compounds. After 5 h incubation at 37° C., 5% CO2 in a humidified atmosphere, the plate of cells and compounds was centrifuged at 200×g for 5 min at RT. […] To these supernatant-containing wells was added 10 μL of 5× Anti-Analyte Acceptor beads ([…] of AlphaLISA HiBlock Buffer) and incubated for 30 min at RT while shaking on an orbital plate shaker. To each well was added 10 μL of 5× Biotinylated Antibody Anti-analyte (5 nM in AlphaLISA HiBlock Buffer) and incubated on an orbital plate shaker for 60 min at RT or overnight at 4° C. To each well was added 25 μL of 2× SA-Donor beads ([…] in AlphaLISA HiBlock Buffer) and incubated for 30-45 min at RT in the dark while shaking on an orbital plate shaker. The plate was then read on a Perkin Elmer Envision (λex=680 nm, […]). The percent effect of the AlphaLISA signal at each compound concentration was calculated based on 30 uM cGAMP positive controls and 0.3% DMSO negative controls. The plot of percent effect versus the log of compound concentration was fit with a 4-parameter concentration response equation to calculate EC50 values.
Compounds of the disclosure were evaluated for IFN-3 secretion in THP1 cell culture as described above.

full-length HAQ STING = full-length HAQ STING (Homo sapiens (Human), UniProt Q86WV6, G230A/H232R/R293Q/R71H); assay: 3H-cGAMP filtration binding assay (HAQ STING); details: competition with tritiated cGAMP, HAQ STING membrane
full-length HAQ STING, sequence (Q86WV6 other isoform, or with tags, fused parts or gaps, stated change not applied): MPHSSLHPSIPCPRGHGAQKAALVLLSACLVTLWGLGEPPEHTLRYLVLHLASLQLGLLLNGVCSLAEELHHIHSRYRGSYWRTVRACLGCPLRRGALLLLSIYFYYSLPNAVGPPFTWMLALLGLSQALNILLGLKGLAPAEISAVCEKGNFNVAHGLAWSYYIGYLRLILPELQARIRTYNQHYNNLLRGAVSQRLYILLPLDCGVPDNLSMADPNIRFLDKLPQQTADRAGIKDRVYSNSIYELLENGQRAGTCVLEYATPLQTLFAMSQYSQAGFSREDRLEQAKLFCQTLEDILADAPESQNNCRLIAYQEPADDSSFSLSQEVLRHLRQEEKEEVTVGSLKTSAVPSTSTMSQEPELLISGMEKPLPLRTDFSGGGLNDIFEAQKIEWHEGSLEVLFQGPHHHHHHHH
Text: The ability of compounds to bind STING is quantified by the ability to compete with tritiated cGAMP ligand for human STING receptor membrane using a radioactive filter-binding assay. The binding assay employs STING receptor obtained from Hi-Five cell membranes overexpressing full-length HAQ STING prepared in-house and tritiated cGAMP ligand also purified in-house.
(§1) The ability of compounds to bind STING is quantified by their ability to compete with tritiated cGAMP ligand for human STING receptor membrane using a radioactive filter-binding assay. The binding assay employs STING receptor obtained from Trichoplusia ni cell membranes (T. ni; Expression Systems, cat #94-002F, www.exressionsystems.com) overexpressing full-length HAQ STING and tritiated cGAMP ligand.
The basic HAQ STING filtration assay protocol is as follows:
Compound and membrane then preincubated for 60 min at RT to allow compound binding to equilibrate. Following equilibration, 8 nM of [^3H]c-GAMP ligand was prepared by diluting into assay buffer, and 50 uL of this working stock was then manually added to each well of the assay plate. […] The filter plates were then dried at 55° C. for 30 min using a pressurized oven before 30 uL of ULTIMA GOLD F scintillate was added to each well. Tritium levels for each reaction well were then measured using a PerkinElmer TopCount plate reader.
(§2) After normalization to controls, the percent activity for each compound concentration was calculated by measuring the amount of remaining radioactivity. The plot of percent activity versus the log of compound concentration was fit with a 4-parameter dose response equation to calculate EC50 values.

full-length WT STING = full-length WT STING (Homo sapiens (Human), UniProt Q86WV6, H232R); assay: 3H-cGAMP filtration binding assay (WT STING); details: for EC50: competition with tritiated cGAMP, WT STING membrane; for inhibition at 20 µM: WT STING, compound at 20 uM
full-length WT STING, sequence (Q86WV6 other isoform, or with tags, fused parts or gaps H232R (already in the parent)): as the sequence (Q86WV6 other isoform, or with tags, fused parts or gaps, stated change not applied) above, with H71R, A230G, Q293R counted along it
Text: as §1, with “www.expressionsystems.com)” for “www.exressionsystems.com)”, “WT” for “HAQ”
The basic WT STING filtration assay protocol is as follows:
The filter plates were then dried at 55° C. for 30 min using a pressurized VWR oven before 30 uL of ULTIMA GOLD F scintillate was added to each well. Tritium levels for each reaction well were then measured using a PerkinElmer TopCount plate reader.
as §2

| EC50 (full-length HAQ STING) [µM] | EC50 (full-length WT STING) [µM] | inhibition at 20 µM (full-length WT STING) [%] | Compound | % Effect at 30 μM relative to 2’3’-cGAMP (THP1 cells) [%] |
| --- | --- | --- | --- | --- |
| 1.9 | 1.14 | – | COc1cc2cc(C(=O)C3CC3C(=O)O)sc2cc1OC (stereo not drawn) [Example 4, 2-(5,6-Dimethoxybenzo[b]thiophene-2-carbonyl)cyclopropane carboxylic acid] | 34 |
| 0.599 | – | 101 | COc1cc2sc(C(=O)[C@@H]3C[C@@H]3C(=O)O)cc2c(F)c1OC [Example 52, (1S,2R)-2-(4-fluoro-5,6-dimethoxybenzo[b]thiophene-2-carbonyl)cyclopropane-1-carboxylic acid] | 142 |
| 2.58 | 10.9 | – | COc1cc2cc(C(=O)CCC(=O)O)sc2cc1Br [Example 9, 4-(6-Bromo-5-methoxybenzo[b]thiophen-2-yl)-4-oxobutanoic acid] | 298 |
| 7.45 | – | 24 | COc1cc2cc(C(=O)C[C@H](C)C(=O)O)sc2cc1CCF [Example 46, (2S)-4-[6-(2-fluoroethyl)-5-methoxy-1-benzothiophen-2-yl]-2-methyl-4-oxobutanoic acid] | 205 |
| 1.38 | 2.08 | – | COc1cc2sc(C(=O)C[C@H](C)C(=O)O)cc2c(F)c1OC [Example 13, (S)-4-(4-fluoro-5,6-dimethoxybenzo[b]thiophen-2-yl)-2-methyl-4-oxobutanoic acid] | 228 |
| 2.73 | 3.87 | – | COc1cc2cc(C(=O)C[C@H](C)C(=O)O)sc2cc1OC [Example 11, (S)-4-(5,6-Dimethoxybenzo[b]thiophen-2-yl)-2-methyl-4-oxobutanoic acid] | 132 |
| 13.8 | – | 16 | Cc1cc2cc(C(=O)C[C@H](C)C(=O)O)sc2cc1Br [Example 29, (S)-4-(6-bromo-5-methylbenzo[b]thiophen-2-yl)-2-methyl-4-oxobutanoic acid] | 9 |
| 0.894 | 0.894 | – | COc1cc2cc(C(=O)C[C@H](C)C(=O)O)sc2cc1Br [Example 15, (S)-4-(6-bromo-5-methoxybenzo[b]thiophen-2-yl)-2-methyl-4-oxobutanoic acid] | 115 |
| 5.7 | 14.7 | – | C=Cc1cc2cc(C(=O)C[C@H](C)C(=O)O)sc2cc1OC [Example 41, (S)-4-(6-methoxy-5-vinylbenzo[b]thiophen-2-yl)-2-methyl-4-oxobutanoic acid] | 312 |
| 10.7 | – | 33 | C[C@@H](CC(=O)c1cc2cc(Cl)c(Cl)cc2s1)C(=O)O [Example 20] | 47 |
| 6.46 | – | 30 | CCOc1cc2sc(C(=O)C[C@H](C)C(=O)O)cc2cc1Cl [Example 33, (S)-4-(5-chloro-6-ethoxybenzo[b]thiophen-2-yl)-2-methyl-4-oxobutanoic acid] | 25 |
| 10.4 | – | 18 | Cc1cc2sc(C(=O)C[C@H](C)C(=O)O)cc2cc1Br [Example 34, (S)-4-(5-bromo-6-methylbenzo[b]thiophen-2-yl)-2-methyl-4-oxobutanoic acid] | 34 |
| 6.34 | 14.3 | – | CCc1cc2sc(C(=O)C[C@H](C)C(=O)O)cc2cc1OC [Example 21, (S)-4-(6-Ethyl-5-methoxybenzo[b]thiophen-2-yl)-2-methyl-4-oxobutanoic acid] | 162 |
| 19.2 | – | 23 | CCOC(=O)C(C)(O)CC(=O)c1cc2cc(OC)c(OC)cc2s1 (stereo not drawn) [Example 48, Ethyl 4-(5,6-dimethoxybenzo[b]thiophen-2-yl)-2-hydroxy-2-methyl-4-oxobutanoate] | 71 |
